Where two headings read alike, the source gives them in different places.

One test addresses TEC kinase (Homo sapiens (Human), UniProt P42680). Kind of test: Mass spectrometry for TEC kinase (tryptic digest). It is filed as binding. The settings on record: 3 hrs at 10x excess. How it is done:
TEC kinase (45 pmols; Invitrogen) was incubated with (I-2) (450 pmols) for 3 hrs at 10× excess prior to tryptic digestion. Iodoacetamide was used as the alkylating agent after compound incubation. […] For tryptic digests a 5 ul aliquot (7.5 pmols) was diluted with 15 ul of 0.1% TFA prior to micro C18 Zip Tipping directly onto the MALDI target using alpha cyano-4-hydroxy cinnamic acid as the matrix (5 mg/ml in 0.1% TFA:Acetonitrile 50:50).
As depicted in FIG. 6, the expected peptide ([…]) to be modified was immediately evident after reaction with I-2 (MI mass of 359.17 Da) at MH+ of 1294.72. The peptide was also quite evident in the control sample as modified by Iodacetamide at MH+ of 992.56. […] There was no evidence of other modified peptides.
For tryptic digests the instrument was set in Reflectron mode with a pulsed extraction setting of 2200. Calibration was done using the Laser Biolabs Pep Mix standard ([…], 1296.69, 1672.92, 2093.09, 2465.20). For CID/PSD analysis the peptide was selected using cursors to set ion gate timing and fragmentation occurred at a laser power about 20% higher and He was used as the collision gas for CID. Calibration for fragments was done using the P14R fragmentation calibration for the Curved field Reflectron.
TEC kinase (45 pmols; Invitrogen) was incubated with (I-4) (450 pmols) for 3 hrs at 10× excess prior to tryptic digestion. Iodoacetamide was used as the alkylating agent after compound incubation. […] For tryptic digests a 5 ul aliquot (7.5 pmols) was diluted with 15 ul of 0.1% TFA prior to micro C18 Zip Tipping directly onto the MALDI target using alpha cyano-4-hydroxy cinnamic acid as the matrix (5 mg/ml in 0.1% TFA:Acetonitrile 50:50).
As depicted in FIG. 7, the expected peptide ([…]) to be modified was immediately evident at MH+ of 1355.72. This is the mass to be expected when compound I-4, with an adduct mass of 420.21, is added to the peptide mass of 935.51. The peptide was also quite evident in the control sample as modified by Iodacetamide at MH^+ of 992.56. […] There was no evidence of other modified peptides. […]

Test [1] deals with B cell lymphoma cell lines. Kind of test: B cell lymphoma proliferation assay. It is filed as cell-based.
The target in another test is BTK (Rattus norvegicus, UniProt Q5S255). Nature of the test: BTK occupancy from in vivo samples by ELISA. As to conditions: po, rats dosed orally 30 mg/kg. The procedure: All samples were prepared with equal concentrations of Biorad lysis buffer (Hercules, Calif., USA), 0.5% bovine serum albumin in PBS with 0.05% Tween-20 to give a final concentration of 1 μM I-215. Samples were incubated in a mixing plate for 1 hr at room temperature while shaking to allow probe compound I-215 to bind to free BTK. After incubation with I-215, samples were added to a washed, streptavidin-coated ELISA plate (Pierce, Rockford, Ill., USA) and incubated for 1 hr at room temperature while shaking. The plate was then washed with PBS containing 0.05% Tween-20 using an automatic plate washer. Anti-BTK antibody was prepared at 1:1000 dilution in 0.5% BSA in PBS (0.05% Tween-20) and added to the ELISA plate. The plate was incubated for 1 hr at room temperature while shaking. The plate was washed as described above and the secondary HRP antibody was prepared at 1:5000 dilution in 0.5% BSA in PBS (0.05% Tween-20). The plate was incubated and washed as described above. TMB was added to the plate, and OD650 was monitored until reaching 1 OD unit. The reaction was then stopped with addition of H2SO4. The plate was analyzed using Gen 5 software, and a 4 Parameter Logistic curve was employed to quantitate samples. Recombinant BTK (Invitrogen, Carlsbad, Calif., USA) was used for the standard curve.
Rats were dosed orally with 30 mg/kg of compound and spleens were harvested either 2 or 24 hours after compound treatment. Rat spleens were disrupted between two microscope slides coated with frosted glass to recover single cell suspensions. Red blood cells were lysed by incubating with RBC lysis buffer (Boston BioProducts) for 2 minutes at room temperature, the cells were then resuspended in RPMI complete media and pelleted by centrifugation. Rat B cells were isolated by positive selection with B220+ antibody-magnetic bead conjugates, purified by MACS column and lysed in Bio-Rad lysis buffer at a concentration of 10 million cells/100 μl. Lysates were analyzed employing the biotinylated probe compound I-215 in an ELISA protocol as described in detail in Example 278.

A further test concerns the target JAK3 (Homo sapiens (Human), UniProt P52333). Nature of the test: Omnia assay for potency assessment against the active form of JAK3. It is filed as biochemical. As to conditions: read-out: JAK3 Inhibition.
Where [2] appears, read: DHL4 B cell lymphoma cell line, read-out: EC50 (μM) DHL4.
Where [3] appears, read: Homo sapiens, DOHH-2, DOHH2 B cell lymphoma cell line, read-out: EC50 (μM) DOHH2.
Setting [4] is: Homo sapiens, WSUDLCL2, WSU-DLCL2 B cell lymphoma cell line, read-out: EC50 (μM) WSU-DLCL2.
[5] abbreviates: spleen B cells harvested 2 hours after treatment, read-out: % BTK Occupancy 2 h.
The mark [6] stands for this setting: spleen B cells harvested 24 hours after treatment, read-out: % BTK Occupancy 24 h.

BTK, sequence (Q5S255 1-660): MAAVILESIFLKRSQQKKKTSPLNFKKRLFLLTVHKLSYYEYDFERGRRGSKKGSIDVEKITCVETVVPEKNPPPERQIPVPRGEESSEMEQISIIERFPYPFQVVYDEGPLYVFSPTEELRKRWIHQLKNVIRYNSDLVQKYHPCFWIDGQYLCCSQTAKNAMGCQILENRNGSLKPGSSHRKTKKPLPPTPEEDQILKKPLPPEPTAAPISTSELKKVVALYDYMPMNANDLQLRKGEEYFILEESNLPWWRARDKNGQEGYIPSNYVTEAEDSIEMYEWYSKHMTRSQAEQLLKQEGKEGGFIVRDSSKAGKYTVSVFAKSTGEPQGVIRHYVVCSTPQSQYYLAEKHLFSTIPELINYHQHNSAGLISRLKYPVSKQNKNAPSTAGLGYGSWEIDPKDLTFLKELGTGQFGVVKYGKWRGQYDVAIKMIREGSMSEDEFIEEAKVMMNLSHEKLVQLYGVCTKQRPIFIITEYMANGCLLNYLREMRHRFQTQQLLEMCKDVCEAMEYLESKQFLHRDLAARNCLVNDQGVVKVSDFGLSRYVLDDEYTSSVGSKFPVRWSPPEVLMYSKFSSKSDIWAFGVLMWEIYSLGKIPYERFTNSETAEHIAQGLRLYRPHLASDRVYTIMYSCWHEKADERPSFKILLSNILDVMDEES
JAK3, sequence (P52333 whole entry): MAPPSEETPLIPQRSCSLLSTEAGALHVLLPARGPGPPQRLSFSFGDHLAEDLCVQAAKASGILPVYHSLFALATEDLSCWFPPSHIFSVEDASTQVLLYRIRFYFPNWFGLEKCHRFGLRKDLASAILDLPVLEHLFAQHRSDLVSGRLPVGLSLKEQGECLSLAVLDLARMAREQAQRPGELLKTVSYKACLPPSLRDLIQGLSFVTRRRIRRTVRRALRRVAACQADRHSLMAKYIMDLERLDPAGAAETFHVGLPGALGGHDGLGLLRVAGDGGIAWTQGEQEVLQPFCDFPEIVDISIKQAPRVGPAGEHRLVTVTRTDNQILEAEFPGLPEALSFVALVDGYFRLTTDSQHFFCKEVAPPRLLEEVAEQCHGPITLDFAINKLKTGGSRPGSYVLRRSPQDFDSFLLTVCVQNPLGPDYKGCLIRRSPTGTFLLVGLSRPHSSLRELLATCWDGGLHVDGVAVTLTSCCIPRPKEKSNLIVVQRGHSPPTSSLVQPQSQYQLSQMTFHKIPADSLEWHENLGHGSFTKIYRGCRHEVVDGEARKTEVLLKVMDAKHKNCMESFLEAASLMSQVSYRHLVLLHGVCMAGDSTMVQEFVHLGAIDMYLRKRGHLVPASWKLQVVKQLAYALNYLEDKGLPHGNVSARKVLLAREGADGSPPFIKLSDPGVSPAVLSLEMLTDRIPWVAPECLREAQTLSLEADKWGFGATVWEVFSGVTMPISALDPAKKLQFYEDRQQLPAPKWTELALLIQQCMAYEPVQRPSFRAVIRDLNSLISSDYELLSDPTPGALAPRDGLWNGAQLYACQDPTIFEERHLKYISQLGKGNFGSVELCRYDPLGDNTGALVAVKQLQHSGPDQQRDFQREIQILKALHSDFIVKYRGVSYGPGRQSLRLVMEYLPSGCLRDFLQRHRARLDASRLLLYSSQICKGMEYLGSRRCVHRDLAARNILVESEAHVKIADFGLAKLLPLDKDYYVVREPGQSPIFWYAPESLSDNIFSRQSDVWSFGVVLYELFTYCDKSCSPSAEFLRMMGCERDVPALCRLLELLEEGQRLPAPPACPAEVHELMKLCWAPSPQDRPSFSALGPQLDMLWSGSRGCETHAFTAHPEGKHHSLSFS
TEC kinase, sequence (P42680 whole entry): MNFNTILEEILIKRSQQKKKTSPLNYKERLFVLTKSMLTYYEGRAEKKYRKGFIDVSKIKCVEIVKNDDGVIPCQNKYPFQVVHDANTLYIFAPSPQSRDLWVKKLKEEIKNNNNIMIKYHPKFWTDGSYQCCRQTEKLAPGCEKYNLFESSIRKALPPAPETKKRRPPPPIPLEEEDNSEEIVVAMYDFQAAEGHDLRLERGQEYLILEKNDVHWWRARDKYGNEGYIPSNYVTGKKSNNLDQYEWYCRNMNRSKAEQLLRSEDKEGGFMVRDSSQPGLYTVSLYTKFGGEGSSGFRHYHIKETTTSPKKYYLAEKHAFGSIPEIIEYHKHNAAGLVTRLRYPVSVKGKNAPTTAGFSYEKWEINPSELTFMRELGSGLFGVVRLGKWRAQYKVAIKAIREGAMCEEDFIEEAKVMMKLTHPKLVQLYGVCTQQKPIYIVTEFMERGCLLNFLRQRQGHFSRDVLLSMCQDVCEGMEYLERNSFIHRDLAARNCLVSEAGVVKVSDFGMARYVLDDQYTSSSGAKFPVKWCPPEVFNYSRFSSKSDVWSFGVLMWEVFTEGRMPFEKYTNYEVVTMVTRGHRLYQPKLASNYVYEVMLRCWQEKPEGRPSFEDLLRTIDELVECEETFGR

In the case of `Cc1cccc(Nc2nc(Nc3cccc(NC(=O)/C=C/CN(C)C)c3)ncc2F)c1` [Compound I-4, (E)-4-(dimethylamino)-N-(3-(5-fluoro-4-(m-tolylamino)pyrimidin-2-ylamino)phenyl)but-2-enamide], at TEC kinase, the “covalent modification of TEC kinase peptide GCLLNFLR (Cys449) by mass spectrometry” value is recorded as “reaction was complete”. In addition, the EC50 in test [1] (setting [2]), in test [1] (setting [3]) and in test [1] (setting [4]) was 0.1 to 1 µM in each case. For the same compound, the receptor occupancy at 30 mg/kg on BTK (setting [5]) was 87%; at BTK (setting [6]), 68%. Further, on JAK3, the IC50 is below 0.01 µM.

Regarding `C=CC(=O)Nc1cccc(Nc2nc(Nc3ccccc3)ncc2C)c1` [Compound I-7, N-(3-(5-methyl-2-(phenylamino)pyrimidin-4-ylamino)phenyl)acrylamide], on TEC kinase, the “covalent modification of TEC kinase peptide GCLLNFLR (Cys449) by mass spectrometry” value is “reaction was complete”. Besides, the half-maximal effective concentration (EC50) in test [1] (setting [2]), in test [1] (setting [3]) and in test [1] (setting [4]) was 1 to 10 µM in each case. The receptor occupancy at 30 mg/kg on BTK (setting [5]) worked out at 98%; at BTK (setting [6]) it was 78%. For the same compound, the IC50 on JAK3 is below 0.01 µM.

The values above are taken from patent US10596172B2 (Celgene CAR LLC, priority 2008, dated 2020).
